Measured values reported in ChEMBL document CHEMBL4033791, “Creation of a Novel Class of Potent and Selective MutT Homologue 1 (MTH1) Inhibitors Using Fragment-Based Screening and Structure-Based Drug Design” (J Med Chem, 2018).
Values after ≈ are worked out from the molar mass of the structure shown. Active and inactive are the calls of the source. The calls are words filed in the database; no cut-off is given here.

Legend:
[1] = Solubility of the compound in buffer
[2] = target: Oxidized purine nucleoside triphosphate hydrolase (Homo sapiens) (UniProt P36639); assay: Inhibition of human full length MTH1 at 20 uM using 8-Oxo-2-dGTP as substrate preincubated for 15 mins followed substrate addition measured after 1 hr by PPilight pyrophosphate-detection based assay
[3] = Efflux ratio of permeability in human Caco2 cells at 10 uM after 60 mins by LC-MS/MS analysis; conditions: Caco-2
[4] = Apparent permeability across apical to basolateral side in human Caco2 cells at 10 uM after 60 mins by LC-MS/MS analysis; conditions: Caco-2
[5] = Drug metabolism in mouse liver microsomes at […] preincubated for 5 mins followed by NADPH addition measured after 30 mins by LC-MS/MS analysis; format: ADME, microsome; conditions: read-out: Drug metabolism
[6] = (§1) Intrinsic clearance in mouse liver microsomes at […] preincubated for 5 mins followed by NADPH addition measured by LC-MS/MS analysis; format: ADME, microsome; conditions: liver microsomes, read-out: CLH
[7] = Apparent permeability across basolateral to apical side in human Caco2 cells at 10 uM after 60 mins by LC-MS/MS analysis; conditions: Caco-2
[8] = target: Oxidized purine nucleoside triphosphate hydrolase (Homo sapiens) (UniProt P36639)
[9] = Apparent permeability across basolateral to apical side in human Caco2 cells at 2 uM after 2 hrs by LC-MS/MS analysis; format: ADME, cell-based; conditions: Caco-2
[10] = Apparent permeability across apical to basolateral side in human Caco2 cells at 2 uM after 2 hrs by LC-MS/MS analysis; format: ADME, cell-based; conditions: Caco-2
[11] = test system: Liver; assay: as §1; format: ADME, microsome; conditions: microsomes, 1000 µM
[12] = Efflux ratio of apparent permeability in human Caco2 cells at 2 uM after 2 hrs by LC-MS/MS analysis; conditions: Caco-2

Row | Compound | solubility [1] | efflux ratio at 1 h, 10 µM [3] | Papp A→B at 1 h, 10 µM [4] | metabolised at 0.5 h [5] | microsomal CLint at 1000 µM [6] | Papp B→A at 1 h, 10 µM [7] | also measured
1 | c1cnc2c(c1)CCN2c1ccnc2[nH]ccc12 | 250 µM (≈ 59.1 µg/mL) |  |  |  |  |  | 
2 | CCNC(=O)c1cc2c(N3CCOC[C@@H]3C)ccnc2n1C |  |  |  |  |  |  | inhibition [2]: inactive
3 | COC(C)(C)C1CCCN1c1ccnc2[nH]ncc12 (centres undefined) | 1000 µM (≈ 260 µg/mL) | 0.9 | 75 ×10⁻⁶ cm/s | 92% | 153 µL/min/mg | 66 ×10⁻⁶ cm/s | 
4 | c1cncc(C2CCCN2c2ccnc3[nH]ncc23)c1 (centres undefined) | 1000 µM (≈ 265 µg/mL) | 1.1 | 44 ×10⁻⁶ cm/s | 54% | 45 µL/min/mg | 50 ×10⁻⁶ cm/s | 
5 | c1cc(-c2cnc3[nH]ccc3c2)c2cc[nH]c2n1 | 500 µM (≈ 117 µg/mL) |  |  |  |  |  | ΔTm [8]: 7.9 °C
6 | CCOC(=O)c1ccnc2[nH]ccc12 | 2000 µM (≈ 380 µg/mL) |  |  |  |  |  | 
7 | CCNC(=O)c1cc2c(N3CCOC[C@@H]3C)ccnc2[nH]1 | 500 µM (≈ 144 µg/mL) |  |  | 43% | 36 µL/min/mg |  | Papp B→A at 2 h, 2 µM [9]: 209 ×10⁻⁶ cm/s; ΔTm [8]: 21 °C; Papp A→B at 2 h, 2 µM [10]: 148 ×10⁻⁶ cm/s
8 | CNC(=O)c1cc2c(-c3cccc(Cl)c3)ccnc2[nH]1 | 250 µM (≈ 71.4 µg/mL) |  |  |  |  |  | 
9 | Clc1cccc(-c2ccnc3[nH]ccc23)c1 | 250 µM (≈ 57.2 µg/mL) |  |  |  |  |  | 
10 | O=C(NC1COC1)c1cc2c(N3CCCC3c3ccccn3)ccnc2[nH]1 (centres undefined) | 250 µM (≈ 90.9 µg/mL) | 6.7 | 7 ×10⁻⁶ cm/s | 33% | 25 µL/min/mg | 46 ×10⁻⁶ cm/s | 
11 | CN(C)C(=O)c1cc2c(-c3cccc(Cl)c3)ccnc2[nH]1 | 250 µM (≈ 74.9 µg/mL) |  |  |  |  |  | 
12 | CNC(=O)c1cc2c(-c3cccnc3)ccnc2[nH]1 | 1000 µM (≈ 252 µg/mL) |  |  |  |  |  | ΔTm [8]: 14.4 °C
13 | O=C(NC1COC1)c1cc2c(N3CCCC3c3cccnc3)ccnc2[nH]1 (centres undefined) |  |  |  | 29% | 24 µL/min/mg |  | 
14 | O=C(NC1CC1)c1cc2c(-c3cccc(Cl)c3)ccnc2[nH]1 | 100 µM (≈ 31.2 µg/mL) | 1 | 18 ×10⁻⁶ cm/s | 83% | 115 µL/min/mg | 18 ×10⁻⁶ cm/s | 
15 | c1ccc(C2CN(c3ccnc4[nH]ccc34)CCO2)cc1 (centres undefined) | 250 µM (≈ 69.8 µg/mL) |  |  |  |  |  | 
16 | c1ccc2c(c1)OCCN2c1ccnc2[nH]ccc12 | 250 µM (≈ 62.8 µg/mL) | 0.9 | 39 ×10⁻⁶ cm/s | 100% |  | 35 ×10⁻⁶ cm/s | microsomal intrinsic clearance [11]: Unstable
17 | O=C(NC1CC1)c1cc2c(N3CCCC3c3ccccn3)ccnc2[nH]1 (centres undefined) | 250 µM (≈ 86.9 µg/mL) | 5.7 | 13 ×10⁻⁶ cm/s | 50% | 44 µL/min/mg | 76 ×10⁻⁶ cm/s | 
18 | Cc1cc2c(-c3cccc(Cl)c3)ccnc2[nH]1 | 50 µM (≈ 12.1 µg/mL) |  |  |  |  |  | 

Row | Compound | solubility [1] | efflux ratio at 1 h, 10 µM [3] | Papp A→B at 1 h, 10 µM [4] | metabolised at 0.5 h [5] | microsomal CLint at 1000 µM [6] | Papp B→A at 1 h, 10 µM [7] | also measured
19 | c1ccc2c(c1)CCN(c1ccnc3[nH]ccc13)C2 | 10 µM (≈ 2.49 µg/mL) |  |  |  |  |  | 
20 | c1ccc(C2COCCN2c2ccnc3[nH]ncc23)cc1 (centres undefined) | 1000 µM (≈ 280 µg/mL) | 0.8 | 88 ×10⁻⁶ cm/s | 97% | 232 µL/min/mg | 73 ×10⁻⁶ cm/s | 
21 | c1ccc(C2CCCN2c2ccnc3[nH]ncc23)cc1 (centres undefined) | 250 µM (≈ 66.1 µg/mL) | 0.8 | 74 ×10⁻⁶ cm/s | 99% | 222 µL/min/mg | 63 ×10⁻⁶ cm/s | 
22 | CCNC(=O)c1cc2c(N3CCCC3C(C)(C)OC)ccnc2[nH]1 (centres undefined) | 1000 µM (≈ 330 µg/mL) |  |  | 56% | 54 µL/min/mg |  | Papp B→A at 2 h, 2 µM [9]: 225 ×10⁻⁶ cm/s; Papp A→B at 2 h, 2 µM [10]: 170 ×10⁻⁶ cm/s; efflux ratio at 2 h, 2 µM [12]: 1.3
23 | OCc1cc2c(-c3cccc(Cl)c3)ccnc2[nH]1 | 10 µM (≈ 2.59 µg/mL) |  |  |  |  |  | 
24 | c1ccc(C2CCCN2c2ccnc3[nH]ccc23)cc1 (centres undefined) | 250 µM (≈ 65.8 µg/mL) | 0.7 | 69 ×10⁻⁶ cm/s | 97% | 244 µL/min/mg | 46 ×10⁻⁶ cm/s | 
25 | CCNC(=O)c1cc2c(N3CCOCC3C3CC3)ccnc2[nH]1 (centres undefined) | 500 µM (≈ 157 µg/mL) |  |  | 48% | 45 µL/min/mg |  | Papp B→A at 2 h, 2 µM [9]: 79 ×10⁻⁶ cm/s; Papp A→B at 2 h, 2 µM [10]: 24 ×10⁻⁶ cm/s; efflux ratio at 2 h, 2 µM [12]: 3.3
26 | N#Cc1cc2c(-c3cccc(Cl)c3)ccnc2[nH]1 | 250 µM (≈ 63.4 µg/mL) |  |  |  |  |  | 
27 | CCNC(=O)c1cc2c(N3CCCC3c3ccccc3)ccnc2[nH]1 (centres undefined) | 100 µM (≈ 33.4 µg/mL) | 1.6 | 41 ×10⁻⁶ cm/s | 85% | 130 µL/min/mg | 63 ×10⁻⁶ cm/s | 
28 | c1cncc(-c2ccnc3[nH]ccc23)c1 | 2000 µM (≈ 390 µg/mL) |  |  |  |  |  | ΔTm [8]: 8.2 °C
29 | CCNC(=O)c1cc2c(-c3cccc(Cl)c3)ccnc2[nH]1 | 250 µM (≈ 74.9 µg/mL) |  |  |  |  |  | 
30 | CCNC(=O)c1cc2c(N3CCCC3c3ccccn3)ccnc2[nH]1 (centres undefined) | 500 µM (≈ 168 µg/mL) | 4.7 | 15 ×10⁻⁶ cm/s | 53% | 48 µL/min/mg | 72 ×10⁻⁶ cm/s | 
31 | CCNC(=O)c1cc2c(N3CCCC3c3cccnc3)ccnc2[nH]1 (centres undefined) | 500 µM (≈ 168 µg/mL) | 8.3 | 4 ×10⁻⁶ cm/s | 52% | 49 µL/min/mg | 31 ×10⁻⁶ cm/s | 
32 | NC(=O)c1cc2c(-c3cccc(Cl)c3)ccnc2[nH]1 | 100 µM (≈ 27.2 µg/mL) |  |  |  |  |  | 
33 | Clc1cccc(-c2ccnc3[nH]c(-c4cnco4)cc23)c1 | 50 µM (≈ 14.8 µg/mL) |  |  |  |  |  | 
34 | CCNC(=O)c1cc2c(N3CCOCC3c3ccccc3)ccnc2[nH]1 (centres undefined) | 250 µM (≈ 87.6 µg/mL) |  |  | 90% | 156 µL/min/mg |  | Papp B→A at 2 h, 2 µM [9]: 89 ×10⁻⁶ cm/s; Papp A→B at 2 h, 2 µM [10]: 63 ×10⁻⁶ cm/s; efflux ratio at 2 h, 2 µM [12]: 1.4
35 | Clc1cccc(-c2ccnc3[nH]ncc23)c1 | 100 µM (≈ 23 µg/mL) |  |  |  |  |  | 
